Assay results from patent publication US11220503B2, “Phthalazine derivatives, preparation method, pharmaceutical composition and usage thereof” (Shanghai SIMR Biotech Co., Ltd., priority 2015, dated 2022).

Target: T1, α5β3γ2 receptor (Homo sapiens, UniProt P18507+P31644)
T1 construct: expressed in transfected cells; host or cells: HEK-293 (stably transfected)
Experiment: Supplementary data for cell level screening: new electrophysiology method (I. Lecker et al)
Type: cell-based
Conditions: for Inverse agonism efficacy(%): new method, CsCl intracellular solution, GABA 0.1˜0.3 CM, other procedures as previous method; for inverse agonism efficacy of the compound/α5IA inverse agonism efficacy: ratio to the α5IA reference run above in the table (r4 or r29)
Experimental: The inventors used electrophysiological methods to assay the inverse agonist efficacy of the substance to be tested. The detailed procedures are as follows: (1) Different subunits of GABAA receptors were expressed in human embryonic kidney cells 293 (HEK293). The cells were cultured in a culture medium and used as a cell model for screening potential analgesics. The α, β and γ subunits are necessary to form complete functional GABAA receptors. In this example, the inventor has established the following cell model: (a) α5 subunit (protein sequence is GenBank accession number: NP_001158509), β3 subunit (protein sequence is GenBank accession number: NP_068712) and γ2 subunit (protein sequence is GenBank accession number: NP_944494) were expressed in HEK-293 cell lines at the same time, which formed the complete functional GABAA receptors. (2) Cells were stably transfected HEK-293 cells expressing α5β3γ2 receptor, which were labeled by green fluorescent protein (GFP). Cells were grown in 10 cm dishes. The cells were passaged after reaching 80-90% confluence. During passaging, the culture medium was removed and discarded, 3 mL DMEM medium (Gibco™) was added to the dishes, the dishes were shaken slightly, and DMEM was removed and discarded. 3 mL Trypsin (Trypsin-EDTA 0.05%, Gibco™) was added and cells were digested at 37° C. for 3 minutes. Then 3 mL complete growth medium (DMEM+10% horse serum (Gibco™)) was added and the cells at the bottom of the culture dishes were dispersed. The cell suspension were transferred to a 15 mL centrifugal tube (Corning®) and then centrifuged at 200 g for 3 minutes. The supernatant was discarded, 4 mL complete growth medium was added, and the cells were resuspended by gently blowing. The cell suspension was diluted by 1:5 or 1:10 for subculturing. The cell suspension was diluted by 1:12 for electrophysiology experiment, which are added to the 24 well plate (Corning®) which has a glass slide pre-treated with poly-D-lysine. The cells were adhered to the slide before the experiment was conducted. The cells were maintained in culture for no more than 24 hours before use. (3) Compound concentration: for screening, all compounds were diluted to a final concentration of 100 nM. […] The compounds were at the concentration of 1 nM, 10 nM, 50 nM, 100 nM and 1000 nM in dose-inverse agonism efficacy (%) experiment. The whole cell patch clamp technique was used in electrophysiology experiments. The extracellular solution (ECS) contained: 150 mM NaCl, 5 mM KCl, 2.5 mM CaCl2, 1 mM MgCl2, 10 mM HEPES and 10 mM glucose (pH 7.4); […], 5 mM EGTA, 10 mM HEPES ([…] water). The currents were recorded by an EPC-10 amplifier and the PatchMaster software (HEKA). Patch electrodes with a resistance of 5-6 MΩ were pulled from borosilicate glass (Sutter). The diluted compounds were perfused by OCTAFLOWII system. GFP positive and independently growing cells were selected for recording. During recording, the membrane voltage was clamped at −60 mV. During experiment, the cells were firstly perfused with ECS for 20 seconds. When the baseline reached to a stable state, cells were then perfused with GABA solution. Then the current induced by GABA can be detected. After about 20-40 seconds, the current was stable. ECS was switched to compounds solution and the effects of the compounds were detected. At last, the perfusion solution was switched to ECS. The experiment was finished when the post-baseline returned to the pre-baseline before compounds perfusion. Only the data whose pre-baseline and post-baseline are at almost the same level were used for analysis. […] Then, compounds were diluted at the desired concentration in GABA ECS. (4) Currents were analyzed with the PatchMaster (HEKA) software. The GABA currents before (Ipre) and after (Ipost) compounds perfusion were recorded respectively. The efficacies of compounds were calculated by the following equation: inverse agonism efficacy=(Ipost-Ipre)*100/Ipre. N indicates experiment numbers. […]

T1 sequence (P31644 32-462): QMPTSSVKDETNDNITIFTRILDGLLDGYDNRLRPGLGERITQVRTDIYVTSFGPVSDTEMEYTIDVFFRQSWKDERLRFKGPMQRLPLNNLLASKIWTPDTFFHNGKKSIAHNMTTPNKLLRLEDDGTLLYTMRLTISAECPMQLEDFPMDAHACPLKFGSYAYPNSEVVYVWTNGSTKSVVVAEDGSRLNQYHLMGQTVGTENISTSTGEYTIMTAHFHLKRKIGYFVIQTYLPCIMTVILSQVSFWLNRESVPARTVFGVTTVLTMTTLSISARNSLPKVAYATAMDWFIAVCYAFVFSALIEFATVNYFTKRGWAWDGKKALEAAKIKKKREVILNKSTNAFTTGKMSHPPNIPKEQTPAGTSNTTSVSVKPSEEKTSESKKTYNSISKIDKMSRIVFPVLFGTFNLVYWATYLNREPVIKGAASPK
T1 sequence (P28472 26-473 isoform P28472-2 partner limits assumed): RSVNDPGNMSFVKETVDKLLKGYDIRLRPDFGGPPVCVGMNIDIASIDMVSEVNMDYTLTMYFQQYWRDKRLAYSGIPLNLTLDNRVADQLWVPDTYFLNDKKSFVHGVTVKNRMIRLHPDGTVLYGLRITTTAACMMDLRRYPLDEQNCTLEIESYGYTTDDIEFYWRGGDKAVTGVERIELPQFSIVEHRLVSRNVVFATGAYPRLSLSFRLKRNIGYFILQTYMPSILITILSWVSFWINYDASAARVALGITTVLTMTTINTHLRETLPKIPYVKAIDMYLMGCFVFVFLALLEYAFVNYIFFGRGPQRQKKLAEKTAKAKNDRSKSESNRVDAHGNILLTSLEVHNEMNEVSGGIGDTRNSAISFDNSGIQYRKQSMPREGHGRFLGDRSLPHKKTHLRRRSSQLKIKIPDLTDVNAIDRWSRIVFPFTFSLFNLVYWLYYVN
T1 sequence (P18507 40-475): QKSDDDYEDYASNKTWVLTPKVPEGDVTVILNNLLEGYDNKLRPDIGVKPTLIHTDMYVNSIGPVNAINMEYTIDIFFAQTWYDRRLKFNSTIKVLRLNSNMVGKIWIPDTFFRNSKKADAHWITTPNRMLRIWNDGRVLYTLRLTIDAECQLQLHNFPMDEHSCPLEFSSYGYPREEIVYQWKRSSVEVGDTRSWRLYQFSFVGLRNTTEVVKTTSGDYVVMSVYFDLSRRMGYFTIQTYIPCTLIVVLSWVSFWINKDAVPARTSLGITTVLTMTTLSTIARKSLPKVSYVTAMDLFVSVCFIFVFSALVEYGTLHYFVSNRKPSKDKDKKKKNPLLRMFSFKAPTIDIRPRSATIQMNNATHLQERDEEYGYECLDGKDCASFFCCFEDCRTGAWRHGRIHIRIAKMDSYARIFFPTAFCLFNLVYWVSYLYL

Inverse agonism efficacy(%)	inverse agonism efficacy of the compound/α5IA inverse agonism efficacy	SMILES
−22.2%	1.278	O=C(c1ccc(COc2nn3c(-c4cc(CO)on4)nnc3c3ccccc23)nc1)N1CCC1 [Compound 49, azetidin-1-yl-(6-(((3-(5-(hydroxymethyl)isoxazol-3-yl)-[1,2,4]triazolo[3,4-a]phthalazin-6-yl)oxy)methyl)pyridin-3-yl)methanone]
−28.8%	1.658	O=C(NC1CC1)c1ccc(COc2nn3c(-c4cc(CO)on4)nnc3c3ccccc23)nc1 [Compound 36, N-cyclopropyl-6-(((3-(5-(hydroxymethyl)isoxazol-3-yl)-[1,2,4]triazolo[3,4-a]phthalazin-6-yl)oxy)methyl)nicotinamide]
−52%	2.796	Cc1cc(-c2nnc3c4ccccc4c(OCc4ccc(C(=O)NCC(F)(F)F)cn4)nn23)no1 [Compound 30, 6-(((3-(5-methylisoxazol-3-yl)-[1,2,4]triazolo[3,4-a]phthalazin-6-yl)oxy)methyl)-N-(2,2,2-trifluoroethyl)nicotinamide]
−21.5%	1.238	Cc1cc(-c2nnc3c4ccccc4c(OCc4ccc(C(=O)NCC5CCCO5)cn4)nn23)no1 (stereo not shown) [Compound 26, 6-(((3-(5-methylisoxazol-3-yl)-[1,2,4]triazolo[3,4-a]phthalazin-6-yl)oxy)methyl)-N-((tetrahydrofuran-2-yl)methyl)nicotinamide]
−27.6%	1.589	N#Cc1cc(C(=O)N[C@H]2CCC[C@@H]2O)ccc1COc1nn2c(-c3cc(CO)on3)nnc2c2ccccc12 [Compound 56, 3-cyano-N-((1S,2S)-2-hydroxycyclopentyl)-4-(((3-(5-(hydroxymethyl)isoxazol-3-yl)-[1,2,4]triazolo[3,4-a]phthalazin-6-yl)oxy)methyl)benzamide]

Further lines, the compound ahead of its results:

SMILES	Inverse agonism efficacy(%)	inverse agonism efficacy of the compound/α5IA inverse agonism efficacy
Cc1cc(-c2nnc3c4ccccc4c(OCc4ccc(C(=O)NCCN5CCOCC5)cn4)nn23)no1 [Compound 12, 6-(((3-(5-methylisoxazol-3-yl)-[1,2,4]triazolo[3,4-a]phthalazin-6-yl)oxy)methyl)-N-(2-morpholinoethyl)nicotinamide]	−19.0625%	1.098
CS(=O)(=O)NNC(=O)c1ccc(COc2nn3c(-c4cc(CO)on4)nnc3c3ccccc23)nc1 [Compound 53, N′-(6-(((3-(5-(hydroxymethyl)isoxazol-3-yl)-[1,2,4]triazolo[3,4-a]phthalazin-6-yl)oxy)methyl)nicotinoyl)methanesulfonohydrazide]	−22.8%	1.313
Cc1cc(-c2nnc3c4ccccc4c(OCc4ccc(C(N)=O)cn4)nn23)no1 [Compound 28, 6-(((3-(5-methylisoxazol-3-yl)-[1,2,4]triazolo[3,4-a]phthalazin-6-yl)oxy)methyl)nicotinamide]	−19.86%	1.143
COC1CCN(C(=O)c2ccc(COc3nn4c(-c5cc(C)on5)nnc4c4ccccc34)nc2)CC1 [Compound 22, (4-methoxypiperidin-1-yl)(6-(((3-(5-methylisoxazol-3-yl)-[1,2,4]triazolo[3,4-a]phthalazin-6-yl)oxy)methyl)pyridin-3-yl)methanone]	−33%	1.774
Cc1cc(-c2nnc3c4ccccc4c(OCc4ccc(C(=O)NCCS(C)(=O)=O)cn4)nn23)no1 [Compound 27, 6-(((3-(5-methylisoxazol-3-yl)-[1,2,4]triazolo[3,4-a]phthalazin-6-yl)oxy)methyl)-N-(2-(methylsulfonyl)ethyl)nicotinamide]	−32.1%	1.726
O=C(NC1CCOCC1)c1ccc(COc2nn3c(-c4cc(CO)on4)nnc3c3ccccc23)nc1 [Compound 44, 6-(((3-(5-(hydroxymethyl)isoxazol-3-yl)-[1,2,4]triazolo[3,4-a]phthalazin-6-yl)oxy)methyl)-N-(tetrahydro-2H-pyran-4-yl)nicotinamide]	−20.8%	1.196
Cc1cc(-c2nnc3c4ccccc4c(OCc4ccc(C(=O)NC5CC5)cn4)nn23)no1 [Compound 04, N-cyclopropyl-6-(((3-(5-methylisoxazol-3-yl)-[1,2,4]triazolo[3,4-a]phthalazin-6-yl)oxy)methyl) nicotinamide]	−26.5%	1.526
O=C(NCC(F)(F)F)c1ccc(COc2nn3c(-c4cc(CO)on4)nnc3c3ccccc23)nc1 [Compound 42, 6-(((3-(5-(hydroxymethyl)isoxazol-3-yl)-[1,2,4]triazolo[3,4-a]phthalazin-6-yl)oxy)methyl)-N-(2,2,2-trifluoroethyl)nicotinamide]	−32.5%	1.871
Cc1cc(-c2nnc3c4ccccc4c(OCc4ccc(C(=O)NC5CCN(C)CC5)cn4)nn23)no1 [Compound 11, 6-(((3-(5-methylisoxazol-3-yl)-[1,2,4]triazolo[3,4-a]phthalazin-6-yl)oxy)methyl)-N-(1-methylpiperidin-4-yl)nicotinamide]	−17.71%	1.020
